Laboratory results as given in patent publication US6849757B2, “Antiangiogenic drug to treat cancer, arthritis and retinopathy” (Abbott Laboratories, priority 1998, dated 2005).

System: Human Microvascular Endothelial Cells (HMVEC)
Experiment: Endothelial cell migration assay (modified Boyden chamber, bFGF-stimulated)
Type: cell-based
Settings: HMVEC migration toward bFGF, 4 hours at 37° C., percent inhibition of migration compared to a positive control
Description: Endothelial Cell Migration Assay
The endothelial cell migration assay was performed essentially as described by Polverini, P. J. et al., Methods Enzymol, 198: 440-450 (1991). Briefly, Human Microvascular Endothelial Cells (HMVEC) were starved overnight in DMEM containing 0.1% bovine serum albumin (BSA). Cells were then harvested with trypsin and resuspended in DMEM with 0.1% BSA at a concentration of 1.5×10^6 cells/mL. Cells were added to the bottom of a 48-well modified Boyden chamber (Nucleopore Corporation, Cabin John, Md.). The chamber was assembled and inverted, and cells were allowed to attach for 2 hours at 37° C. to polycarbonate chemotaxis membranes (5 μm pore size) that had been soaked in 0.1% gelatin overnight and dried. The chamber was then reinverted and basic fibroblast growth factor (bFGF) and test substances were added to the wells of the upper chamber (to a total volume of 50 μL); the apparatus was then incubated for 4 hours at 37° C. Membranes were recovered, fixed and stained (DiffQuick, Fisher Scientific, Pittsburgh, Pa.) and the number of cells that had migrated to the upper chamber per 10 high power fields were counted. Background migration to DMEM+0.1% BSA was subtracted and the data reported as the number of cells migrated per 10 high power fields (400×) or when results from multiple experiments were combined, as the percent inhibition of migration compared to a positive control.

Question: For `CC(=O)NC(CCCCN)C(=O)Nc1ccc(C(=O)N[C@@H](CC(N)=O)C(=O)O)c(-c2ccccc2)c1` (stereo partly shown) [Example 17], which “% inhibition at 200 nM test compound” value is on record?
Answer: >95%

Question: `COC(=O)c1ccc(NC(=O)[C@H](CCCCNC(=O)OCc2ccccc2)NC(C)=O)cc1-c1cccc(OCc2ccccc2)c1` [Example 12] was tested. Which “% inhibition at 200 nM test compound” value did it give?
Answer: 29%

Question: With “(S)-N-[4-[[2-(acetylamino)-6-amino-1-oxohexyl]amino]benzoyl]-L-α-asparagine [Example 18]” as the compound, how does the “% inhibition at 200 nM test compound” value read?
Answer: 90%

Question: How did the “% inhibition at 200 nM test compound” value turn out when `CC(C)(C)OC(=O)N[C@@H](CCCCN)C(=O)Nc1ccc(C(=O)O)c(-c2cccc(O)c2)c1` [Example 31, 5-(((2S)-6-amino-1-(tert-butoxycarbonyl)aminohexanoyl)amino)-3′-hydroxy(1,1′-biphenyl)-2-carboxylic Acid] was run?
Answer: >95%

Question: For `CC(=O)N[C@@H](CCCCN)C(=O)Nc1ccc(C(=O)O)c(-c2cccc(O)c2)c1` [Example 15, (S)-4-[[2-(acetylamino)-6-amino-1-oxohexyl)amino]-2-(3-hydroxphenyl)benzoic acid], which “% inhibition at 200 nM test compound” value is on record?
Answer: 64%

Same assay, conditions: Homo sapiens; 200 nM test compound; HMVEC migration toward bFGF, 4 hours at 37° C.; percent inhibition of migration compared to a positive control

Question: How did the inhibition at 0.2 µM turn out when `COC(=O)c1ccc(NC(=O)[C@@H](CCCCN)NC(=O)OC(C)(C)C)cc1-c1ccccc1O` [Example 10, (R)-methyl 4-[[6-amino-2-[[(1,1-dimethylethoxy)carbonyl]amino]-1-oxohexyl]amino]-2-(2-hydroxyphenyl)benzoate] was run?
Answer: 80%

Question: For `NC(CCCCNC(=O)OCc1ccccc1)C(=O)Nc1ccc(CC(=O)N[C@@H](CC(=O)O)C(=O)O)cc1` (stereo partly drawn) [Example 20, (S)-N-[[4-[[2-amino-6-[[(phenylmethoxy)carbonyl]amino]-1-oxohexyl]amino]phenyl]acetyl]-L-aspartic Acid], which inhibition at 0.2 µM is on record?
Answer: 34%
